Data: patent publication US20160050930A1, “METHODS OF CONTROLLING NEONICOTINOID RESISTANT PESTS” (SYNGENTA PARTICIPATIONS AG, priority 2013, published 2016)
Counter-ions that a name gives are not always drawn.

| melting point [°C] | SMILES |
| --- | --- |
| 91 to 93 | N#C[C@@]1(c2cncc(F)c2)C[C@H]2C=C[C@@H](C1)N2C1CCC1 |
| 152 to 153 | N#C[C@@]1(c2cncc(Br)c2)C[C@H]2C=C[C@@H](C1)N2 |
| 176 to 178 | N#C[C@@]1(c2cncc(Br)c2)C[C@H]2CC[C@@H](C1)N2 (as salt: TFA) |
| 125 to 127 | CC(C)(C)OC(=O)N1[C@@H]2CC[C@H]1C[C@](C#N)(c1cncc(Br)c1)C2 |
| 170 to 171 | N#C[C@@]1(c2cncc(I)c2)C[C@H]2C=C[C@@H](C1)N2C1COC1 |
| 128 to 130 | N#C[C@@]1(c2cncc(Br)c2)C[C@H]2CC[C@@H](C1)N2 |
